Assay results as given in PMC3288053 (PLoS ONE, 2012).
Where two headings read alike, the source gives them in different places.

How the values were obtained:
CHO-K1/GLUT4 cells = test: Quantification of GLUT4 translocation ratio (IN Cell Analyzer 1000); format: cell-based; settings: for EC50: serum-starved cells, read-out: EC50, membrane GLUT4 (GLUT4 translocation)
Experimental: CHO-K1 cells are transfected with pEGFPN1-GLUT4-myc plasmid using Lipofectamine 2000, and subsequently screened with G418 (800 µg/ml). The CHO-K1/GLUT4 stable cell line is obtained by picking up clones.
CHO-K1/GLUT4 cells are seeded into 96-well plate. After cells reached 100% confluence, F12 medium is changed to 3T3-L1 medium and incubated for 2 days. 8-hour serum starvation later, cells are stimulated with insulin for 5 minutes, fixed with 3.7% formaldehyde for 15 minutes, and labeled with anti-myc monoclonal antibody and secondary antibody (Alexa Fluor 647 conjuncted anti-mouse antibody). Fluorescence pictures were obtained by IN Cell Analyzer 1000 Instrument (GE Healthcare) with the same exposure time. The basic unit comprises several core components including a Nikon microscope and a high-resolution CCD camera. Membrane-located GLUT4 is represented by the intensity of red fluorescence (Alex fluor 647) and normalized by the intensity of green fluorescence (GLUT4-EGFP), which is assigned to the total GLUT4 [46].

CD45 = biological target: T1, CD45 (Homo sapiens, UniProt P08575); test: PTP enzyme inhibition assay (pNPP substrate); format: biochemical; settings: PTPs 0.3 µM, pNPP 5 mM, 25°C; NI: No inhibition at 100 µM
T1 construct: pGEX2T-CD45_560–1256; GST (N); made in house; host or cells: E. coli BL21 (DE3)
Experimental: (§1) The enzymatic activities of the recombinant PTPs are measured at 25°C using pNPP as substrate. The initial velocities of enzymatic reactions are determined by continuously measuring the absorbance at 405 nm every 15 s using a microplate spectrophotometer (Bio-Rad). […] To determine the inhibition type, each concentration of Rut (0, 50 and 75 µM) is incubated with PTP1B (0.3 µM) in reaction buffer (50 mM HEPES, pH7.0, 1 mM EDTA, and 100 mM NaCl) for 10 min and the reactions are initiated by different concentrations of pNPP (0.5–10 mM). The inhibition type is determined using double-reciprocal plots. In determination of the selectivity of Rut against PTPs, the result is referred as no inhibition when 100 µM Rut inhibits no enzyme activity. The same reaction systems are designed for all PTPs including PTP1B.

LAR = biological target: T2, LAR (Homo sapiens, UniProt P10586); test: PTP enzyme inhibition assay (pNPP substrate); format: biochemical; settings: PTPs 0.3 µM, pNPP 5 mM, 25°C; NI: No inhibition at 100 µM; read-out: IC50 LAR
T2 construct: pGEX2T-LAR1282–1888; GST (N); made in house; host or cells: E. coli BL21 (DE3)
Experimental: as §1

PTP1B = biological target: T3, PTP1B (Homo sapiens, UniProt P18031); test: PTP enzyme inhibition assay (pNPP substrate); format: biochemical; settings: PTPs 0.3 µM, pNPP 5 mM, 25°C; NI: No inhibition at 100 µM
T3 construct: pGEX4T-1-PTP1B1–321; GST (N); made in house; host or cells: E. coli BL21 (DE3)
T3 sequence (P18031 1-321): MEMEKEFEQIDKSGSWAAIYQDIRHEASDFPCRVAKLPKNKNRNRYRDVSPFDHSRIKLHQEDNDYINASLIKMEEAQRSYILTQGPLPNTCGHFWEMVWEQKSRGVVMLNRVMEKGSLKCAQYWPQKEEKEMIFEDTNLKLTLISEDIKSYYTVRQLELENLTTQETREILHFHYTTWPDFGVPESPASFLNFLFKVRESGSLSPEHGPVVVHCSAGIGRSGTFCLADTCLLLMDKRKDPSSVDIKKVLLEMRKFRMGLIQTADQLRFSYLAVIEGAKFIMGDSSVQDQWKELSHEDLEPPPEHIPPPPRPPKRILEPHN
Experimental: as §1

PTPα = biological target: T4, PTPα (Homo sapiens, UniProt P18433); test: PTP enzyme inhibition assay (pNPP substrate); format: biochemical; settings: PTPs 0.3 µM, pNPP 5 mM, 25°C; NI: No inhibition at 100 µM; read-out: IC50 PTPα
T4 construct: pGEX2T-PTPα182–803; GST (N); made in house; host or cells: E. coli BL21 (DE3)
Experimental: as §1

TC-PTP = biological target: T5, TC-PTP (Homo sapiens, UniProt P17706); test: PTP enzyme inhibition assay (pNPP substrate); format: biochemical; settings: PTPs 0.3 µM, pNPP 5 mM, 25°C; NI: No inhibition at 100 µM
T5 construct: pGEX4T-1-TC-PTP1–288; GST (N); made in house; host or cells: E. coli BL21 (DE3)
Experimental: as §1

3T3-L1 adipocytes = test: 2-Deoxyglucose uptake in 3T3-L1 adipocytes; format: cell-based; settings: insulin 17 nM; Rut 5–25 µM, C2 10 µM
Experimental: 3T3-L1 adipocytes are fully differentiated (the 10th day after MDI stimulation) and seeded into 24-well plate. After incubation with compounds in serum-free medium containing 0.5% BSA for 8 hours, medium is changed to Krebs buffer containing […] insulin and incubated for 30 minutes. In the last 5 minutes, cells are incubated with 2-[^3H]-deoxy-D-glucose. The glucose uptake is stopped by ice-cold PBS, and the cells are then lysed with 0.1% Triton. Finally the radioactivity is calculated by a scintillation counter. Cytochalasin B is used to measure nonspecific uptake, and the value is subtracted from all the data. Radioactivity is normalized by total protein concentration that is measured by BCA kit.

[1] = biological target: T6, Retinoid X receptor α ligand-binding domain (RXRα-LBD), His-tagged, purified (human, UniProt P19793 229-458); test: SPR; Biacore 3000; purified SRC1(613-773) immobilised on a CM5 chip by amine coupling; different concentrations of PPARγ-LBD or RXRα-LBD injected at 20 µL/min for 60 s, dissociation 120 s; running buffer 10 mM HEPES, 150 mM NaCl, 3 mM EDTA, 0.005% P20, pH 7.4; also 1 µM LBD pre-incubated for 1 h with Rut (16.8-100 µM); settings: both partners purified
T6 construct: also called hRXRα-LBD; source: E. coli BL21 (DE3), purified (His-tag purification, Novagen instructions)
T6 sequence: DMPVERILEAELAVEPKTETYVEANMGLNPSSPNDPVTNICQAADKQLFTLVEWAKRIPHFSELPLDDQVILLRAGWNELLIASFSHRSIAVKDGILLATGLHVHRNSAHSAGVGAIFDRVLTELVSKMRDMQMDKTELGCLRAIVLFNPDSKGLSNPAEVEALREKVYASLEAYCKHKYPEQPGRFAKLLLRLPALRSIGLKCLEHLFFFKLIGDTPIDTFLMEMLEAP

[2] = biological target: T7, Peroxisome proliferator-activated receptor γ ligand-binding domain PPARγ-LBD(202-477), His-tagged, purified (human, UniProt P37231-2 202-477); test: as above; settings: both partners purified
T7 construct: also called hPPARγ-LBD; source: E. coli BL21 (DE3), purified (His-tag purification, Novagen instructions)
T7 sequence (looked up): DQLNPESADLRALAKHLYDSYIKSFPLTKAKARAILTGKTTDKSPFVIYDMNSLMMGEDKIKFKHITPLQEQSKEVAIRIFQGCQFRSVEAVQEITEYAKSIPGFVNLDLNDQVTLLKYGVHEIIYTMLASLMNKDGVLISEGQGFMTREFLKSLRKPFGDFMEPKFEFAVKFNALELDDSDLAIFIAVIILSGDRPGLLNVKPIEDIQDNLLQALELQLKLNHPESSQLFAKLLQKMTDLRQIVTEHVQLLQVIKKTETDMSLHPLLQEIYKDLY

T1 sequence (P08575 610-1306 limits assumed): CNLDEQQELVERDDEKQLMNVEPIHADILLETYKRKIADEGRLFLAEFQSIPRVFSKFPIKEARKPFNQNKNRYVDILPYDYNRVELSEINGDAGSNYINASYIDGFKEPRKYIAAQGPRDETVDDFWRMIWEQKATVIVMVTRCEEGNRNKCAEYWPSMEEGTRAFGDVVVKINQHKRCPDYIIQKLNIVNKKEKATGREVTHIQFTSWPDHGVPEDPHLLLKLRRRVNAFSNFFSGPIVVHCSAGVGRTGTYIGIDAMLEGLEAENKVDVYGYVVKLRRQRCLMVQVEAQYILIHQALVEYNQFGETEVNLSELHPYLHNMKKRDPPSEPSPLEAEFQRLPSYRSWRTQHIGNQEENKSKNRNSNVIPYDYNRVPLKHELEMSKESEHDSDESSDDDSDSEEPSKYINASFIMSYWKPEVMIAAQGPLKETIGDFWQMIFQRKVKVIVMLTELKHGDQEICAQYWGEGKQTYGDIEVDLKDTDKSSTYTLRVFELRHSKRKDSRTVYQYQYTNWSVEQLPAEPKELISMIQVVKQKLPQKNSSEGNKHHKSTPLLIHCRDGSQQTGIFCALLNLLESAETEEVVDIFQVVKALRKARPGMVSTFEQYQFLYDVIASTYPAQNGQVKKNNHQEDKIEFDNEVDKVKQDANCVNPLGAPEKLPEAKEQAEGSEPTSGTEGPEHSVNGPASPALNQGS
T5 sequence (P17706 1-288): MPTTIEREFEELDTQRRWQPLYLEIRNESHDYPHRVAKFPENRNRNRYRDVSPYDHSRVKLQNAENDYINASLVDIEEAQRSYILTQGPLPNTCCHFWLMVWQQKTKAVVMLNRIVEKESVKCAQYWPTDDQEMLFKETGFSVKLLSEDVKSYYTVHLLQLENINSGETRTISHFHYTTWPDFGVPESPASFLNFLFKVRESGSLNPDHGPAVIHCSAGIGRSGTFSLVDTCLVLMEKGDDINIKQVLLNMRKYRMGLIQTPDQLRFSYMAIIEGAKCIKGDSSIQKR
T2 sequence (P10586 1301-1907 limits assumed): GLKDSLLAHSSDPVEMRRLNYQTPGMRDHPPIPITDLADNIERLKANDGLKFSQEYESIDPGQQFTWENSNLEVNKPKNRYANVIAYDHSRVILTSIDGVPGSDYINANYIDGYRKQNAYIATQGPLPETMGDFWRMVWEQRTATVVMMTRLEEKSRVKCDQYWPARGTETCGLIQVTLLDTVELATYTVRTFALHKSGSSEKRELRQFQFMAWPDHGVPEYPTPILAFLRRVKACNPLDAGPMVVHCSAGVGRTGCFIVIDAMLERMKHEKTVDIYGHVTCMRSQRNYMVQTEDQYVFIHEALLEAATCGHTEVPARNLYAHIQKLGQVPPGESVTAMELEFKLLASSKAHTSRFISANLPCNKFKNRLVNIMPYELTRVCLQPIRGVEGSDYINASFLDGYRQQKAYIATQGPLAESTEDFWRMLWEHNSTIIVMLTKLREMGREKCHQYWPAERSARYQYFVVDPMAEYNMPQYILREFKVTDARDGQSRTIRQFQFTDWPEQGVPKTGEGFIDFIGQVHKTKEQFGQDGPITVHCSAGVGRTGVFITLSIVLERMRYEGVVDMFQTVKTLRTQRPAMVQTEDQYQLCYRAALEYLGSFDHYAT

COC[C@H]1OC(=O)c2coc3c2[C@@]1(C)C1=C(C3=O)[C@@H]2CCC(=O)[C@@]2(C)C[C@H]1OC(C)=O [wortmannin, reference compound]
effect on Rut or insulin-stimulated GLUT4 translocation (CHO-K1/GLUT4 cells; wortmannin 1 µM, Rut 20 µM or insulin 170 nM): completely inhibits

insulin: insulin used as stimulus in cellular GLUT4 translocation assay
insulin-stimulated GLUT4 translocation over the basal (CHO-K1/GLUT4 cells; IN Cell 1000 analyzer based system): around 1.5 fold | EC50 (CHO-K1/GLUT4 cells; insulin 5 min): 0.1 µM

pervanadate [reference compound]
EC50 (CHO-K1/GLUT4 cells; pervanadate 30 min): 51 µM | IC50 (CD45): 6 nM | IC50 (LAR): 26 nM | IC50 (PTP1B): 15 nM | IC50 (PTPα): 59 nM | IC50 (TC-PTP): 36 nM | insulin-induced glucose uptake (3T3-L1 adipocytes): increase the insulin-stimulated glucose uptake

B1: Steroid receptor coinducer-1 fragment SRC1(613-773), His-tagged, purified (domain or fragment, human, UniProt Q15788 613-773, looked up)
chain: LHNNDRLSDGDSKYSQTSHKLVQLLTTTAEQQLRHADIDTSCKDVLSCTGTSNSASANSSGGSCPSSHSSLTERHKILHRLLQEGSPSDITTLSVEPDKKDSASTSVSVTGQVQGNSSIKLELDASKKKESKDHQLLRYLLDKDEKDLRSTPNLSLDDVKV
notes: plasmid pET15b-SRC1(613-773); Human cDNA is stated as template for the two-hybrid SRC1(613-773) clone; source: E. coli BL21 (DE3), purified (His-tag purification, Novagen instructions)
Kd [1]: 1160 nM | binding result [2]: binds
